Data on ten compounds can be found in PMC2858402 (Chemical biology & drug design, 2009).

For assay [1], the target named is Full-length DnaK (FL, flDnaK) (Escherichia coli, UniProt P0A6Y8). In words: isothermal titration calorimetry. In kind it is binding. (ITC needs no label: the signal is the heat of the interaction.)
Assay [2] addresses β-domain of DnaK (SBD), residues 393–507 (Escherichia coli, UniProt P0A6Y8). The experiment in a line: isothermal titration calorimetry. Type of assay: binding.

Full-length DnaK (FL, flDnaK), sequence (P0A6Y8 2-638): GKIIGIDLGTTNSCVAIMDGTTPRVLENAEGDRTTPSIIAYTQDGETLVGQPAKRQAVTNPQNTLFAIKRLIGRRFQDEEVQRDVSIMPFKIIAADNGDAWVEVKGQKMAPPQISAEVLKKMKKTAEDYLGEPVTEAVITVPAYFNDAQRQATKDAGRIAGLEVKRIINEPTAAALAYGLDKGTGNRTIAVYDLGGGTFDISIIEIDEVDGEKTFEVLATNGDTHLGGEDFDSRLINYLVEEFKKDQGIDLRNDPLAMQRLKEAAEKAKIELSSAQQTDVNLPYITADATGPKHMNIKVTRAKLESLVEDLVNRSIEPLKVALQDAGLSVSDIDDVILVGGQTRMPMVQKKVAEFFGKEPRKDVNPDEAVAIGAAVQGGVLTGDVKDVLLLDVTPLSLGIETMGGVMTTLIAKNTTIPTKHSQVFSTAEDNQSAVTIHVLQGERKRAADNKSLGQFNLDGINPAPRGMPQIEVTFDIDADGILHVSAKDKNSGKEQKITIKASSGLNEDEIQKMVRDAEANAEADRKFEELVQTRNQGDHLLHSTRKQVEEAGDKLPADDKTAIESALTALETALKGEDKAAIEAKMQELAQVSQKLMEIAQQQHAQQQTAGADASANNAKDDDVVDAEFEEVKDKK
β-domain of DnaK (SBD), residues 393–507, sequence (P0A6Y8 393-507): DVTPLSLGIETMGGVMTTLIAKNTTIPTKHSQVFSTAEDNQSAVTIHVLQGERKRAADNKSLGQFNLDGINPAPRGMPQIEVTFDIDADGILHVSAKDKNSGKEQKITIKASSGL

On to `Nc1ncnc2c1ncn2[C@@H]1O[C@H](COP(=O)(O)OP(=O)(O)OP(=O)(O)O)[C@@H](O)[C@H]1O` [ATP], for which the affinity in assay [1], expressed as Kd, was 10 nM.

In the case of `O=C(NCc1cccc2ccccc12)c1cccs1` [D5, N-(naphthalen-1-ylmethyl)thiophene-2-carboxamide], the figures for the equilibrium dissociation constant (Kd) in assay [1] and in assay [2] were 1700 nM and 1000 nM, respectively.

Take `O=C(Nc1ccc2[nH]ccc2c1)c1cccs1` [D7, N-(1H-indol-5-yl)thiophene-2-carboxamide]: the values for the Kd in assay [1] and in assay [2] were 12700 nM and 4900 nM, respectively.

Take `O=C(Nc1ncc2ccccc2n1)c1cccs1` [D9, N-(quinazolin-2-yl)thiophene-2-carboxamide]: in assay [2], the affinity, expressed as Kd, was 1500 nM.

For `O=C(NCc1cccc2ccsc12)c1cccs1` [D10, N-(benzo[b]thiophen-7-ylmethyl)thiophene-2-carboxamide], in assay [1], binding was put at a Kd of 200 nM.

As for `O=C(NCc1ccc(Cl)c(Cl)c1)c1cccs1` [F6, N-(3,4-dichlorobenzyl)thiophene-2-carboxamide], the Kd (usually a measure of binding affinity in units of concentration) in assay [1] was 7300 ± 6400 nM.

For `O=C(NCc1c(Cl)cccc1Cl)c1cccs1` [F7, N-(2,6-dichlorobenzyl)thiophene-2-carboxamide], the Kd in assay [1] is 1500 nM.

The compound `O=C(NCc1ccccc1O)c1cccs1` [F8, N-(2-hydroxybenzyl)thiophene-2-carboxamide] gave a dissociation constant (Kd) in assay [1] of 2300 nM.

In assay [1], `O=C(NCc1cc(Cl)cc(Cl)c1)c1cccs1` [F9, N-(3,5-dichlorobenzyl)thiophene-2-carboxamide] yielded a Kd of 2800 nM.

In the case of `O=C(c1cccs1)N1CCN(CCO)CC1` [F10, (4-(2-hydroxyethyl)piperazin-1-yl)(thiophen-2-yl)methanone], the Kd in assay [1] was 16700 nM.
